Like-named read-outs stand apart in the source and are kept apart here.
Columns and labels:
COS Cell = COS Cell IC50 (Cell-Based Assay, procedure of WO 95/10516); settings: range stated for the listed group of compounds, read-out: Cos Cell
Description: (§1) FPT IC50 (inhibition of farnesyl protein transferase, in vitro enzyme assay) and COS Cell IC50 (Cell-Based Assay) were determined following the assay procedures described in WO 95/10516, published April 20, 1995. GGPT IC50 (inhibition of geranylgeranyl protein transferase, in vitro enzyme assay), Cell Mat Assay, and anti-tumor activity (in vivo anti-tumor studies) could be determined by the assay procedures described in WO 95/10516.

Human tumor cells = assay: Soft Agar Assay (anchorage-independent growth, colony count after MTT staining); format: cell-based; settings: range stated for the listed group of compounds
Description: Anchorage-independent growth is a characteristic of tumorigenic cell lines. Human tumor cells are suspended in growth medium containing 0.3% agarose and an indicated concentration of a farnesyl transferase inhibitor. The solution is overlayed onto growth medium solidified with 0.6% agarose containing the same concentration of farnesyl transferase inhibitor as the top layer. After the top layer is solidified, plates are incubated for 10-16 days at 37°C under 5% CO2 to allow colony outgrowth. After incubation, the colonies are stained by overlaying the agar with a solution of MTT (3-[4,5-dimethylthiazol-2-yl]-2.5-diphenyltetrazolium bromide, Thiazolyl blue) (1 mg/mL in PBS). Colonies can be counted and the IC50's can be determined.

[1] = molecular target: farnesyl protein transferase (Homo sapiens, UniProt P49354+P49356); assay: FPT IC50, inhibition of farnesyl protein transferase, in vitro enzyme assay (procedure of WO 95/10516); format: biochemical; settings: range stated for the listed group of compounds
Chain of farnesyl protein transferase (P49356 whole entry, one chain of several): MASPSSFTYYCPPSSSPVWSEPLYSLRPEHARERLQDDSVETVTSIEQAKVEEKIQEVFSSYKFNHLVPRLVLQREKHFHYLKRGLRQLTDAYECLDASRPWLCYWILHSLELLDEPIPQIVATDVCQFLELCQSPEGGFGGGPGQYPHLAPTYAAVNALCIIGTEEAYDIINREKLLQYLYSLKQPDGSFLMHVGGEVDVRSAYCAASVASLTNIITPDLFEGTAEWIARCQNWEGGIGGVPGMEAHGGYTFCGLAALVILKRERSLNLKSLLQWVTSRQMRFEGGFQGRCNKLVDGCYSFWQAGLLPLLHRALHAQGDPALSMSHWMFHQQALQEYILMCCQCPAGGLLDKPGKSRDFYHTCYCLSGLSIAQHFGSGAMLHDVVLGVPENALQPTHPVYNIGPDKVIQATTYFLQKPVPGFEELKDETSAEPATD
Description: as §1

[2] = H-ras, read-out: FPT IC50 (H-ras)
[3] = ras form not stated, read-out: FPT IC50

SMILES: O=C(O)CCC(=O)N1CCC(CC(=O)N2CCC([C@H]3c4ncc(Br)cc4CCc4cc(Cl)cc(Br)c43)CC2)CC1 [Compound 18.0-B]
- IC50 (COS Cell): ≥ 9 nM
- IC50 (Human tumor cells): ≥ 19.5 nM
- IC50 [1, 2]: 2 to 31.7 nM
- IC50 ([1]; k-ras, read-out: FPT IC50 (k-ras)): 14.5 to 71.2 nM
- IC50 [1, 3]: 0.7 to 18 nM

SMILES: O=C(O)CCCC(=O)N1CCC(CC(=O)N2CCC([C@H]3c4ncc(Br)cc4CCc4cc(Cl)cc(Br)c43)CC2)CC1 [Compound 19.0-B]
- IC50 (COS Cell): ≥ 9 nM
- IC50 (Human tumor cells): ≥ 19.5 nM
- IC50 [1, 3]: 0.7 to 18 nM

SMILES: O=C(CON=Cc1cc[n+]([O-])cc1)N1CCC(CC(=O)N2CCC(C3c4ncc(Br)cc4CCc4cc(Cl)cc(Br)c43)CC2)CC1 (stereo not shown) [Compound 22.0-B]
- IC50 (COS Cell): ≥ 9 nM
- IC50 (Human tumor cells): ≥ 19.5 nM
- IC50 [1, 3]: 0.7 to 18 nM

SMILES: CC(C)=NOCCC(=O)N1CCC(CC(=O)N2CCC([C@H]3c4ncc(Br)cc4CCc4cc(Cl)cc(Br)c43)CC2)CC1 [Compound 23.0-B]
- IC50 (COS Cell): ≥ 9 nM
- IC50 (Human tumor cells): ≥ 19.5 nM
- IC50 [1, 2]: 2 to 31.7 nM
- IC50 [1, 3]: 0.7 to 18 nM

SMILES: CC(C)(C)OC(=O)N1C[C@H](O)C[C@H]1C(=O)N1CCC(CC(=O)N2CCC([C@H]3c4ncc(Br)cc4CCc4cc(Cl)cc(Br)c43)CC2)CC1 [Compound 24.0-B]
- IC50 (COS Cell): ≥ 9 nM
- IC50 (Human tumor cells): ≥ 19.5 nM
- IC50 [1, 3]: 0.7 to 18 nM

SMILES: O=C(CC1CCN(C(=O)Cn2cnc([N+](=O)[O-])c2)CC1)N1CCC([C@H]2c3ncc(Br)cc3CCc3cc(Cl)cc(Br)c32)CC1 [Compound 26.0-B]
- IC50 (COS Cell): ≥ 9 nM
- IC50 (Human tumor cells): ≥ 19.5 nM
- IC50 [1, 3]: 0.7 to 18 nM

SMILES: O=C(Cc1c[nH]cn1)N1CCC(CC(=O)N2CCC([C@H]3c4ncc(Br)cc4CCc4cc(Cl)cc(Br)c43)CC2)CC1 [Compound 30.0-B]
- IC50 (COS Cell): ≥ 9 nM
- IC50 (Human tumor cells): ≥ 19.5 nM
- IC50 [1, 3]: 0.7 to 18 nM

SMILES: CN(C)C(=O)C(=O)N1CCC(CC(=O)N2CCC([C@H]3c4ncc(Br)cc4CCc4cc(Cl)cc(Br)c43)CC2)CC1 [Compound 33.0-B]
- IC50 (COS Cell): ≥ 9 nM
- IC50 (Human tumor cells): ≥ 19.5 nM
- IC50 [1, 3]: 0.7 to 18 nM

SMILES: O=C(CC1CCN(C(=O)Cn2cccc2)CC1)N1CCC([C@H]2c3ncc(Br)cc3CCc3cc(Cl)cc(Br)c32)CC1 [Compound 34.0-B]
- IC50 (COS Cell): ≥ 9 nM
- IC50 (Human tumor cells): ≥ 19.5 nM
- IC50 [1, 3]: 0.7 to 18 nM

SMILES: COC(=O)c1cccn1CC(=O)N1CCC(CC(=O)N2CCC([C@H]3c4ncc(Br)cc4CCc4cc(Cl)cc(Br)c43)CC2)CC1 [Compound 35.0-B]
- IC50 (COS Cell): ≥ 9 nM
- IC50 (Human tumor cells): ≥ 19.5 nM
- IC50 [1, 3]: 0.7 to 18 nM

SMILES: O=C(CO)N1CCC(CC(=O)N2CCC([C@H]3c4ncc(Br)cc4CCc4cc(Cl)cc(Br)c43)CC2)CC1 [Compound 37.0-B]
- IC50 (COS Cell): ≥ 9 nM
- IC50 (Human tumor cells): ≥ 19.5 nM
- IC50 [1, 3]: 0.7 to 18 nM

SMILES: N#CCC(=O)N1CCC(CC(=O)N2CCC([C@H]3c4ncc(Br)cc4CCc4cc(Cl)cc(Br)c43)CC2)CC1 [Compound 44.0-B]
- IC50 (COS Cell): ≥ 9 nM
- IC50 (Human tumor cells): ≥ 19.5 nM
- IC50 [1, 3]: 0.7 to 18 nM

SMILES: CONC(=O)C(=O)N1CCC(CC(=O)N2CCC([C@H]3c4ncc(Br)cc4CCc4cc(Cl)cc(Br)c43)CC2)CC1 [Compound 49.0-B]
- IC50 (COS Cell): ≥ 9 nM
- IC50 (Human tumor cells): ≥ 19.5 nM
- IC50 [1, 3]: 0.7 to 18 nM

SMILES: NC(=O)CC(=O)N1CCC(CC(=O)N2CCC([C@H]3c4ncc(Br)cc4CCc4cc(Cl)cc(Br)c43)CC2)CC1 [Compound 50.0-B]
- IC50 (COS Cell): ≥ 9 nM
- IC50 (Human tumor cells): ≥ 19.5 nM
- IC50 [1, 3]: 0.7 to 18 nM

SMILES: O=C(O)c1cccn1CC(=O)N1CCC(CC(=O)N2CCC([C@H]3c4ncc(Br)cc4CCc4cc(Cl)cc(Br)c43)CC2)CC1 [Compound 52.0-B]
- IC50 (COS Cell): ≥ 9 nM
- IC50 (Human tumor cells): ≥ 19.5 nM
- IC50 [1, 3]: 0.7 to 18 nM

SMILES: CCOC(=O)c1c(C)ncn1CC(=O)N1CCC(CC(=O)N2CCC([C@H]3c4ncc(Br)cc4CCc4cc(Cl)cc(Br)c43)CC2)CC1 [Compound 53.0-B]
- IC50 (COS Cell): ≥ 9 nM
- IC50 (Human tumor cells): ≥ 19.5 nM
- IC50 [1, 3]: 0.7 to 18 nM

SMILES: CCOC(=O)c1ncn(CC(=O)N2CCC(CC(=O)N3CCC([C@H]4c5ncc(Br)cc5CCc5cc(Cl)cc(Br)c54)CC3)CC2)c1C [Compound 54.0-B]
- IC50 (COS Cell): ≥ 9 nM
- IC50 (Human tumor cells): ≥ 19.5 nM
- IC50 [1, 3]: 0.7 to 18 nM

SMILES: O=C(OCc1ccccc1)c1cccn1CC(=O)N1CCC(CC(=O)N2CCC([C@H]3c4ncc(Br)cc4CCc4cc(Cl)cc(Br)c43)CC2)CC1 [Compound 55.0-B]
- IC50 (COS Cell): ≥ 9 nM
- IC50 (Human tumor cells): ≥ 19.5 nM
- IC50 [1, 3]: 0.7 to 18 nM

SMILES: COC(=O)Cc1cn(CC(=O)N2CCC(CC(=O)N3CCC([C@H]4c5ncc(Br)cc5CCc5cc(Cl)cc(Br)c54)CC3)CC2)cn1 [Compound 56.0-B]
- IC50 (COS Cell): ≥ 9 nM
- IC50 (Human tumor cells): ≥ 19.5 nM
- IC50 [1, 3]: 0.7 to 18 nM

SMILES: O=C(CC1CCN(C(=O)Cn2cncn2)CC1)N1CCC([C@H]2c3ncc(Br)cc3CCc3cc(Cl)cc(Br)c32)CC1 [Compound 57.0-B]
- IC50 (COS Cell): ≥ 9 nM
- IC50 (Human tumor cells): ≥ 19.5 nM
- IC50 [1, 3]: 0.7 to 18 nM

SMILES: COC(=O)CCCCCC(=O)N1CCC(CC(=O)N2CCC([C@H]3c4ncc(Br)cc4CCc4cc(Cl)cc(Br)c43)CC2)CC1 [Compound 68.0-B]
- IC50 (COS Cell): ≥ 9 nM
- IC50 (Human tumor cells): ≥ 19.5 nM
- IC50 [1, 3]: 0.7 to 18 nM

SMILES: O=C(O)CCCCCC(=O)N1CCC(CC(=O)N2CCC([C@H]3c4ncc(Br)cc4CCc4cc(Cl)cc(Br)c43)CC2)CC1 [Compound 70.0-B]
- IC50 (COS Cell): ≥ 9 nM
- IC50 (Human tumor cells): ≥ 19.5 nM
- IC50 [1, 3]: 0.7 to 18 nM

SMILES: CC(=O)C(=O)N1CCC(CC(=O)N2CCC([C@H]3c4ncc(Br)cc4CCc4cc(Cl)cc(Br)c43)CC2)CC1 [Compound 72.0-B]
- IC50 (COS Cell): ≥ 9 nM
- IC50 (Human tumor cells): ≥ 19.5 nM
- IC50 [1, 3]: 0.7 to 18 nM

SMILES: O=C(O)C[C@H](O)CC(=O)N1CCC(CC(=O)N2CCC([C@H]3c4ncc(Br)cc4CCc4cc(Cl)cc(Br)c43)CC2)CC1 [Compound 74.0-B]
- IC50 (COS Cell): ≥ 9 nM
- IC50 (Human tumor cells): ≥ 19.5 nM
- IC50 [1, 3]: 0.7 to 18 nM

SMILES: O=C(CC1CCN(C(=O)CN2CCCCC2)CC1)N1CCC([C@H]2c3ncc(Br)cc3CCc3cc(Cl)cc(Br)c32)CC1 [Compound 75.0-B]
- IC50 (COS Cell): ≥ 9 nM
- IC50 (Human tumor cells): ≥ 19.5 nM
- IC50 [1, 3]: 0.7 to 18 nM

SMILES: O=C1NC(=O)C(CC(=O)N2CCC(CC(=O)N3CCC([C@H]4c5ncc(Br)cc5CCc5cc(Cl)cc(Br)c54)CC3)CC2)N1 (stereo partly shown) [Compound 77.0-B]
- IC50 (COS Cell): ≥ 9 nM
- IC50 (Human tumor cells): ≥ 19.5 nM
- IC50 [1, 3]: 0.7 to 18 nM

SMILES: O=C(CC1CCN(C(=O)CN2C(=O)CSC2=O)CC1)N1CCC([C@H]2c3ncc(Br)cc3CCc3cc(Cl)cc(Br)c32)CC1 [Compound 79.0-B]
- IC50 (COS Cell): ≥ 9 nM
- IC50 (Human tumor cells): ≥ 19.5 nM
- IC50 [1, 2]: 2 to 31.7 nM
- IC50 [1, 3]: 0.7 to 18 nM

SMILES: O=C(C(=O)N1CCC(CC(=O)N2CCC([C@H]3c4ncc(Br)cc4CCc4cc(Cl)cc(Br)c43)CC2)CC1)c1cccs1 [Compound 81.0-B]
- IC50 (COS Cell): ≥ 9 nM
- IC50 (Human tumor cells): ≥ 19.5 nM
- IC50 [1, 3]: 0.7 to 18 nM

SMILES: O=C(Cc1cccs1)N1CCC(CC(=O)N2CCC([C@H]3c4ncc(Br)cc4CCc4cc(Cl)cc(Br)c43)CC2)CC1 [Compound 82.0-B]
- IC50 (COS Cell): ≥ 9 nM
- IC50 (Human tumor cells): ≥ 19.5 nM
- IC50 [1, 3]: 0.7 to 18 nM

SMILES: O=C(CC1CCOCC1)N1CCC(CC(=O)N2CCC([C@H]3c4ncc(Br)cc4CCc4cc(Cl)cc(Br)c43)CC2)CC1 [Compound 85.0-B]
- IC50 (COS Cell): ≥ 9 nM
- IC50 (Human tumor cells): ≥ 19.5 nM
- IC50 [1, 3]: 0.7 to 18 nM

SMILES: NCCC(=O)N1CCC(CC(=O)N2CCC([C@H]3c4ncc(Br)cc4CCc4cc(Cl)cc(Br)c43)CC2)CC1 [Compound 88.0-B]
- IC50 (COS Cell): ≥ 9 nM
- IC50 (Human tumor cells): ≥ 19.5 nM
- IC50 [1, 3]: 0.7 to 18 nM

SMILES: CC(C)(C)OC(=O)NCCCC(=O)N1CCC(CC(=O)N2CCC([C@H]3c4ncc(Br)cc4CCc4cc(Cl)cc(Br)c43)CC2)CC1 [Compound 89.0-B]
- IC50 (COS Cell): ≥ 9 nM
- IC50 (Human tumor cells): ≥ 19.5 nM
- IC50 [1, 3]: 0.7 to 18 nM

SMILES: O=C(CON=Cc1ccccc1O)N1CCC(CC(=O)N2CCC(C3c4ncc(Br)cc4CCc4cc(Cl)cc(Br)c43)CC2)CC1 (stereo not shown) [Compound 95.0-B]
- IC50 (COS Cell): ≥ 9 nM
- IC50 (Human tumor cells): ≥ 19.5 nM
- IC50 [1, 3]: 0.7 to 18 nM

SMILES: COC(=O)CCCCC(=O)N1CCC(CC(=O)N2CCC([C@H]3c4ncc(Br)cc4CCc4cc(Cl)cc(Br)c43)CC2)CC1 [Compound 101.0-B]
- IC50 (COS Cell): ≥ 9 nM
- IC50 (Human tumor cells): ≥ 19.5 nM
- IC50 [1, 3]: 0.7 to 18 nM

— EP0942906B1, “COMPOUNDS USEFUL FOR INHIBITION OF FARNESYL PROTEIN TRANSFERASE” (SCHERING CORPORATION, priority 1996, dated 1998)
